The record followed here is ChEMBL document CHEMBL1201862, “PubChem BioAssay data set” (2004).

“And” between values parts separate entries of the source, which are not always exact repeats. Identical values can stand only once.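 Following 48 hours of exposure in 96-well plates, responses at five concentrations were used to interpolate endpoints linearly. GI50: concentration for 50% inhibition of growth.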 The source made the active and inactive calls. Rule as the data show it: active = GI50 up to about 1.1 µM and inactive = higher. Residues, ends and D or L forms follow the SMILES beside them. *: point of attachment. Boc = CC(C)(C)OC(=O)*; OBn = c1ccc(CO*)cc1

What all share (experiment): NCI anticancer screen, dose series, 48 h
The test system of assay [1] is EKVX.
Assay [2] deals with HCC 2998.
The test system of assay [3] is HCT-15.
The test system of assay [4] is HL-60.
The subject of assay [5] is K562.
Assay [6] relates to MOLT-4.
The test system of assay [7] is NCI-H522.
In assay [8] the test system is OVCAR-4.
In assay [9] the test system is RPMI-8226.
Assay [10] relates to SF-539.
Assay [11] concerns SK-MEL-2.
In assay [12] the test system is SK-MEL-5.
The test system of assay [13] is SN12C.
Assay [14] deals with U-251.
For assay [15], the system named is UACC-257.
Assay [16] deals with UACC-62.
The subject of assay [17] is UO-31.
For assay [18], the system named is MDA-MB-435.
Assay [19] deals with NCI/ADR-RES.
The subject of assay [20] is BT-549.

Regarding `CCO/C=C/C(C)C1(C(=O)OCC)CCCCC1=O` (centres undefined), the GI50 in assay [1] is > 100 µM (inactive); in [2], > 100 µM (inactive); in assay [3], 63.1 µM; in assay [4] it was 71.1 µM (inactive); in assay [5] it was > 100 µM (inactive); in assay [6] it was > 100 µM (inactive). The GI50 was > 100 µM (inactive) in [7]; > 100 µM (inactive) in [8]; 84.1 µM (inactive) in [9]; > 100 µM (inactive) in assay [10]; > 100 µM (inactive) in assay [11]; > 100 µM (inactive) in assay [12]. For the same molecule, the GI50 in assay [13], in [14], in assay [15], in assay [16] and in assay [17] was > 100 µM (inactive) throughout.

For `CC1=C(O)C(=O)C2=C(C1=O)[C@@H]([C@@H](C)C/C=C/C(C)(C)O)CC[C@@H]2C`, the GI50 is 31 µM in [3]; 33.4 µM (inactive) in assay [4]; 41.1 µM (inactive) in assay [5]; 43.2 µM (inactive) in assay [18]; 35.9 µM (inactive) in [6]; 21.3 µM (inactive) in [7]. Further, the GI50 in assay [19] is 77.1 µM (inactive); in assay [9], 23.5 µM (inactive); in [10], > 100 µM (inactive); in assay [11], 39.5 µM (inactive); in [12], 35.2 µM (inactive); in [13], 87.1 µM (inactive). For the same molecule, the GI50 in assay [14] was 52.7 µM (inactive); in [15] it was 61.8 µM (inactive); in assay [16] it was 47.4 µM (inactive); in assay [17] it was 62.2 µM (inactive).

For `O=C1O/C(=C(\Br)c2cccc3ccccc23)c2ccccc21`, the GI50 was > 42 µM (inactive) in assay [1]; > 65.3 µM (inactive) in assay [2]; 31.3 µM in [3]; 19.5 µM (inactive) in assay [4]; 25.2 µM (inactive) in assay [5]; 21.5 µM (inactive) in assay [6]. Also, the GI50 is 16 µM (inactive) in assay [7]; 16.5 µM (inactive) in [8]; 22.2 µM (inactive) in assay [9]; 48.1 µM (inactive) in assay [10]; > 42.8 µM (inactive) in [11]; 22.8 µM (inactive) in assay [12]. Besides, the GI50 was 21.3 µM (inactive) in [13]; > 100 µM (inactive) in assay [14]; > 40.9 µM (inactive) in assay [15]; 35.2 µM (inactive) in assay [16]; > 41.3 µM (inactive) in [17].

`CC(=O)CC(O)(C(F)(F)Cl)C(F)(F)Cl`: the GI50 in assay [1] is > 10 µM (inactive); in assay [2] it was > 10 µM (inactive); in [3], more than 10 µM; in [4], > 10 µM (inactive); in assay [5], > 10 µM (inactive); in assay [18], > 10 µM (inactive). Further, the GI50 in [6], in assay [7], in [19], in [8], in assay [9] and in [10] was > 10 µM (inactive) throughout. Also, the GI50 in [11], in assay [12], in assay [13], in [14], in assay [15] and in [16] was > 10 µM (inactive) in each case. The GI50 in [17] is > 10 µM (inactive).

Turning to `N/N=C1\C(=O)N(c2ccc(Cl)cc2Cl)C(=O)C(=O)C1c1nc2ccccc2o1` (centres undefined), the GI50 in assay [1] was > 100 µM (inactive); in assay [2] it was > 100 µM (inactive); in assay [3] it was more than 100 µM; in assay [4], > 100 µM (inactive); in [5], > 100 µM (inactive); in [6], > 100 µM (inactive). The GI50 in [7] was > 100 µM (inactive); in assay [8] it was > 100 µM (inactive); in assay [9], > 100 µM (inactive); in [10] it was > 100 µM (inactive); in [11], 95.7 µM (inactive); in assay [12], > 100 µM (inactive). In addition, the GI50 was > 100 µM (inactive) in assay [13]; > 100 µM (inactive) in [14]; > 100 µM (inactive) in [15]; 11.4 µM (inactive) in assay [16]; 48.3 µM (inactive) in assay [17].

As to `CC1(C)N=C(N)N=C(N)N1c1ccc(OCC(=O)Nc2cccc(S(=O)(=O)F)c2)c(Cl)c1`, the GI50 in assay [2] is 19.1 µM (inactive); in assay [3] it was 9.75 µM; in [4], 3.75 µM (inactive); in assay [5] it was 1.66 µM (inactive); in assay [18], 4.52 µM (inactive); in assay [6] it was 16.3 µM (inactive). Moreover, the GI50 in assay [7] is 51.8 µM (inactive); in assay [19], 59.6 µM (inactive); in assay [8], > 100 µM (inactive); in [9], > 33.3 µM (inactive); in assay [10], 13.2 µM (inactive); in assay [11], > 100 µM (inactive). In addition, the GI50 in [12] was 3.56 µM (inactive); in [13], 8 µM (inactive); in assay [14] it was 13.6 µM (inactive); in [15], 2.98 µM (inactive); in assay [16], 0.676 µM (active); in [17] it was 78.5 µM (inactive).

In the case of `CN1CCN(c2ccc3[nH]c(-c4ccc5[nH]c(-c6ccc(N(C)CCCl)cc6)nc5c4)nc3c2)CC1`, the GI50 in assay [2] was 0.461 µM (active); in assay [3], 12.6 µM; in assay [4], < 0.01 µM (active); in assay [5] it was 0.191 µM (active); in assay [18] it was 0.144 µM (active); in assay [6], 0.0127 µM (active). The GI50 in assay [7] is 0.0163 µM (active); in assay [19] it was 40.6 µM (inactive); in assay [8], 0.305 µM (active); in assay [9] it was 1.62 µM (inactive); in [10], 0.109 µM (active); in assay [11], 0.22 µM (active). The GI50 in [12] was 0.18 µM (active); in assay [13] it was 0.0461 µM (active); in assay [14], 0.0429 µM (active); in [15], 1.66 µM (inactive); in assay [16] it was 0.15 µM (active); in [17], 18.7 µM (inactive).

As for `COC(C)(C)[C@H](O)C(O)CC(C)[C@@H]1CCC23CC12CCC1[C@@]2(C)CCC(OC(C)=O)C(C)(C)C2CC(OC2OC(COC(C)=O)C(O)C(O)C2O)[C@]13C` (some centres undefined), the GI50 in [1] was 7.46 µM (inactive); in assay [2] it was 1.57 µM (inactive); in [3], 1.86 µM; in assay [4], 1.35 µM (inactive); in [5] it was 2.34 µM (inactive); in [6], 4.19 µM (inactive). Moreover, the GI50 in assay [7] was 1.83 µM (inactive); in assay [8] it was 4.55 µM (inactive); in [9] it was 0.264 µM (active); in assay [10], 2.72 µM (inactive); in [11], 9.29 µM (inactive); in assay [12] it was 5.48 µM (inactive). In addition, the GI50 in [13] was 2.99 µM (inactive); in [14], 2.67 µM (inactive); in assay [15], 3.76 µM (inactive); in assay [16], 2.77 µM (inactive); in assay [17], 6.95 µM (inactive).

Consider `O=c1ccc(-c2ccc(-n3ccnc3)cc2)nn1CCO`, for which the GI50 was > 100 µM (inactive) in [20]; 46.6 µM (inactive) in assay [1]; > 100 µM (inactive) in assay [2]; more than 100 µM in assay [3]; > 100 µM (inactive) in assay [4]; > 100 µM (inactive) in assay [18]. Besides, the GI50 in assay [6], in assay [7], in assay [8], in [9], in [10] and in assay [12] was > 100 µM (inactive) each time. Further, the GI50 in assay [13], in assay [14], in [15], in assay [16] and in assay [17] was > 100 µM (inactive) in each case.

For `CNc1ccc2c(c1)Cc1ccccc1-2`, the GI50 in assay [1] is 12.7 µM (inactive); in assay [2] it was 30.6 µM (inactive); in assay [3], 15.3 µM; in [4], 20.3 µM (inactive); in [5], 31.1 µM (inactive); in assay [18], 28.3 µM (inactive). Also, the GI50 in assay [6] is 17 µM (inactive); in assay [7] it was 21.9 µM (inactive); in [19], > 100 µM (inactive); in assay [8], 26.5 µM (inactive); in assay [9] it was 38.8 µM (inactive); in [10], 32.4 µM (inactive). In addition, the GI50 was 35.4 µM (inactive) in assay [11]; 26.8 µM (inactive) in [12]; 43.8 µM (inactive) in assay [13]; 34.4 µM (inactive) in assay [14]; 61.1 µM (inactive) in assay [15]; 26.8 µM (inactive) in assay [16]. Also, the GI50 in assay [17] is 31.1 µM (inactive).

For the molecule `CC(C)C(NC(=O)CNC(=O)C1CCCN1C(=O)C(NC(=O)OC(C)(C)C)C(C)C)C(=O)NCC(=O)OCc1ccccc1` (centres undefined) (Boc-VPGVG-OBn; configuration not given here), the GI50 is > 100 µM (inactive) in assay [1]; > 100 µM (inactive) in assay [2]; more than 100 µM in [3]; > 100 µM (inactive) and 72.8 µM (inactive) in assay [4]; 61.4 µM (inactive) in assay [5]; > 100 µM (inactive) in assay [18]. The GI50 in assay [6], in assay [7], in assay [19], in [8], in assay [9] and in [10] was > 100 µM (inactive) throughout. Further, the GI50 is > 100 µM (inactive) in assay [11]; 24.5 µM (inactive) in assay [12]; > 100 µM (inactive) in [13]; > 100 µM (inactive) in assay [14]; > 100 µM (inactive) in assay [15]; > 100 µM (inactive) in assay [16]. In assay [17], the GI50 was > 100 µM (inactive).
